Reference: US8273700B2, “Methods and compositions for treatment of cystic fibrosis” (The Johns Hopkins University, priority 2005, dated 2012)
“Also recorded” adds a separate entry of the source. Where a SMILES comes first, the peptide text is derived from it. [ ]: non-standard residue; d: D form. Nle = CCCC[C@H](N)C(=O)O

Experiments:
CFTR = molecular target: T1, CFTR (Homo sapiens, UniProt P13569, DEL508-508); test: MQAE assay of CFTR-mediated chloride transport in IB3-1 cells; type: cell-based; settings: for MQAE fluorescence (Cl- channel activity): 10 μM forskolin or genistein, 5 μM CFTR inhibitor 172 or 14-22 amide (FIG. 5A)
T1 construct: expressed in transfected cells; host or cells: IB3-1 (ΔF508/W1282X) and CFTE (ΔF508 homozygous) cells
Method: CFTR-mediated chloride transport activity in IB3-1 cells transfected with ΔVCP, VCPQQ, Δgp78 and gp78ΔC constructs, and treated with bortezomib (1, 5 or 10 μM) was assayed by the halide-sensitive dye, MQAE. Fluorescence of MQAE is quenched by halides. Cells were grown on glass coverslips in DMEM containing 10% FBS. Cells were loaded with the dye by hypotonic shock at 37° C. for 40 min in Opti-MEM/water (1:1) containing 10 mM MQAE, washed and then mounted in a perfusion chamber for fluorescence measurements. Fluorescence was measured using a Zeiss inverted microscope coupled to a CCD camera Excitation and emission wavelengths were 350 nm and 460 nm, respectively. The stage and objective lenses were maintained at 37° C. The media was kept flowing through the perfusion chamber at 1 ml/min using a peristaltic pump. Both 10 μM forskolin and 10 μM genistein were used to induce Cl^− transport in IB3-1 cells. CFTR was inhibited with either 5 μM CFTR inhibitor 172 (12) or 14-22 amide (Calbiochem, San Diego, Calif.) to reduced cAMP mediated phosphorylation. Chloride efflux was calculated using following equations: F0/FCl=1+[Cl-]i*Ksv (1) F0=F20*(1+0.02*Ksv) (2) (dCl/dt)=F0/[Ksv*(FCl)2]*dFCl/dt (3)

ΔF508-CFTR [1] = test system: ΔF508-CFTR; design: dose or concentration left out as unconfirmed; settings: cited from earlier work
IL8 = IL8 cytokine ELISA in IL1-β induced IB3-1 cells; type: cell-based, human; settings: for IL8 cytokine levels: IL1-β 1 ng/ml 12 hrs
NFκB = test: NoShift NFκB binding assay on nuclear extracts of IB3-1 cells; type: cell-based, human; settings: for NFκB binding (absorbance at 450 nm): IL1-β 1 ng/ml 12 hrs, transfection 24 hrs or 5 μM bortezomib / 5 μM MLN-273 6 hrs (FIG. 6C)
Method: IB3-1 cells transfected (24 hrs) with ΔVCP, ΔF508 or ΔCHOP were treated with 5 μM bortezomib (6 hrs)/5 μM MLN-273 (6 hrs)/5 mM 4PBA (24 hrs). Cells were induced with IL-β(1 ng/ml) for 12 hrs. After 24 hrs of transfection, nuclear extracts (11) were collected using NucBuster protein extraction kit (Novagen, San Diego, Calif.) and the shift in bound NFκB was measured using NoShift NFκB Binding Assay kit (Novagen, San Diego, Calif.) as specified by the manufacturer. The signal from nuclear extracts was compared with the negative control (minus extract). The specificity of protein binding was established using NFκB specific and mutant competitors. The plates were read at 450 nm on 96-well microplate reader (Molecular Devices) using SOFT-MAX-Pro software. The absorbance readings were used to determine the levels of bound NFκB. The data represents mean of three independent experiments±SD.

proteasome = test: Protease activity in IB3-1 cells; type: cell-based, human; settings: 10 μM, 6 hrs treatment
ΔF508-CFTR [2] = test: Pulse-chase metabolic labeling and CFTR immunoprecipitation in IB3-1 cells; type: cell-based, human; settings: metabolic labeling t=2 hrs, transfection 48 hrs or 10 μM bortezomib 6 hrs (FIG. 2D)
Method: (§1) The IB3-1 (ΔF508/W1282X; low level expression of ΔF508-CFTR and no W1282X protein), CFTE (ΔF508-homozygous) and S9 (IB3-1 corrected by AAV-CFTR) cells were maintained in LHC-8 media containing 100 units/ml penicillin, 100 μg/ml streptomycin, 0.25 μg/ml amphotericin B and 10% fetal bovine serum. LHC-8 media was purchased from Biosource and other components were purchased from Gibco (Invitrogen, Carlsbad, Calif.). The cells were plated on 6-well plates and transfected with 4 μg plasmid DNA each of ΔF508/wt-CFTR-GFP and co-transfected with VCP shRNA (ΔVCP), VCPQQ construct (deficient in two AAA ATPase domains, D1 & D2), gp78 siRNA (Δgp78) or gp78ΔC (deficient in VCP binding domain) constructs using Lipofectamine 2000 (Invitrogen, Carlsbad, Calif.) as described by the manufacturer. After 48 hrs of transfection, cells were rinsed three times and starved for 1 hr in methionine- and cysteine-free Dulbecco's modified Eagle's medium (DMEM). Cells were pulse labeled with 250 μci/ml [^35S]-methionine and cysteine (ICN Biomedical, Irvine, Calif.) for 30 min and than chased in DMEM containing 10 mM methionine and 4 mM cysteine for indicated times.
(§2) Cells were lysed directly on plates using M-PER (Pierce Biotech. Inc., Rockford, Ill.) protein lysis buffer containing protease inhibitor cocktail (Roche) after three washes with ice cold PBS. […] Proteins were detected using respective primary antibodies. […]

VCP = test: Immunoblotting for VCP in IB3-1 cells; type: cell-based, human; settings: IB3-1 cells treated with bortezomib 6 hrs (FIG. 3A)
Method: (§3) Cells were lysed directly on plates using M-PER (Pierce Biotech. Inc., Rockford, Ill.) protein lysis buffer containing protease inhibitor cocktail (Roche) after three washes with ice cold PBS. CF bronchial brushings were transferred to lysis buffer. For immunoprecipitation, 500 μg/ml (cell culture)/50 μg/ml (bronchial brushings) total protein extracts were incubated with 50 μl of protein A/G agarose beads (Santa Cruz Biotechnology Inc., Santa Cruz, Calif.) for 3 hours at 4° C. After preclearing, 5 μg of respective primary antibody or pre-immune sera (negative control) was added to each tube. After 1 hour, protein A/G agarose beads (50 μL) were added to each tube and tubes were incubated overnight at 4° C. Beads were washed once with lysis buffer (20 mM Tris-HCl [pH 7.6], 150 mM NaCl, 0.5% Triton X-100 and 10 μM phenylmethylsulfonyl fluoride [PMSF]) followed with two washes with phosphate buffer saline (PBS). The beads were suspended in Laemmli's sample buffer (30 μL) containing β-mercaptoethanol, vortexed for 1 minute, resolved by 4-10% SDS-PAGE and transferred to a 0.4-μm pore size nitrocellulose membrane. Proteins were detected using respective primary antibodies. For pulse chase experiments, CFTR immunoprecipitate was eluted with sample buffer and separated on a 4-8% SDS-PAGE, dried for 2 hours and processed for autoradiography.

wt-CFTR = test: Pulse-chase metabolic labeling and CFTR immunoprecipitation in S9 cells; type: cell-based, human; settings: S9 cells transfected with wt-CFTR; ΔVCP 48 hrs or 10 μM bortezomib 6 hrs (FIG. 2B)
Method: as §1, §2

[3] = test system: E-selectin, ICAM-1, and VCAM-1; settings: primary human umbilical vein endothelial cells; cited from earlier work
IB3-1 cells = test: Microscopic examination of cell morphology; type: cell-based, human; settings: 10 μM bortezomib 6 hrs, phase microscopy (data not shown)
Hsp70 = test: Immunoblotting for Hsp70 in IB3-1 cells; type: cell-based, human; settings: IB3-1 cells treated with bortezomib 6 hrs (FIG. 3A)
Method: as §3

[4] = test system: streptococcal cell wall-induced polyarthritis; settings: rat; cited from earlier work
gp78 = test: Immunoblotting for gp78 in IB3-1 cells; type: cell-based, human; settings: IB3-1 cells treated with bortezomib 6 hrs (FIG. 3A)
Method: as §3

ΔF508-CFTR [5] = test: Pulse-chase metabolic labeling and CFTR immunoprecipitation in CFTE cells; type: cell-based, human; settings: CFTE cells transfected with ΔF508-CFTR, 10 μM bortezomib 6 hrs, 42 hrs post-transfection (FIG. 2C)
Method: as §1, §2

Hsp40 = test: Immunoblotting for Hsp40 in IB3-1 cells; type: cell-based, human; settings: IB3-1 cells treated with bortezomib 6 hrs (FIG. 3A)
Method: as §3

NF-κB = settings: mammalian cells; cited from earlier work
[6] = transfection 24 hrs or 5 μM bortezomib / 5 μM MLN-273 6 hrs (FIG. 6B)

T1 sequence (P13569 with tags, fused parts or gaps DEL508-508): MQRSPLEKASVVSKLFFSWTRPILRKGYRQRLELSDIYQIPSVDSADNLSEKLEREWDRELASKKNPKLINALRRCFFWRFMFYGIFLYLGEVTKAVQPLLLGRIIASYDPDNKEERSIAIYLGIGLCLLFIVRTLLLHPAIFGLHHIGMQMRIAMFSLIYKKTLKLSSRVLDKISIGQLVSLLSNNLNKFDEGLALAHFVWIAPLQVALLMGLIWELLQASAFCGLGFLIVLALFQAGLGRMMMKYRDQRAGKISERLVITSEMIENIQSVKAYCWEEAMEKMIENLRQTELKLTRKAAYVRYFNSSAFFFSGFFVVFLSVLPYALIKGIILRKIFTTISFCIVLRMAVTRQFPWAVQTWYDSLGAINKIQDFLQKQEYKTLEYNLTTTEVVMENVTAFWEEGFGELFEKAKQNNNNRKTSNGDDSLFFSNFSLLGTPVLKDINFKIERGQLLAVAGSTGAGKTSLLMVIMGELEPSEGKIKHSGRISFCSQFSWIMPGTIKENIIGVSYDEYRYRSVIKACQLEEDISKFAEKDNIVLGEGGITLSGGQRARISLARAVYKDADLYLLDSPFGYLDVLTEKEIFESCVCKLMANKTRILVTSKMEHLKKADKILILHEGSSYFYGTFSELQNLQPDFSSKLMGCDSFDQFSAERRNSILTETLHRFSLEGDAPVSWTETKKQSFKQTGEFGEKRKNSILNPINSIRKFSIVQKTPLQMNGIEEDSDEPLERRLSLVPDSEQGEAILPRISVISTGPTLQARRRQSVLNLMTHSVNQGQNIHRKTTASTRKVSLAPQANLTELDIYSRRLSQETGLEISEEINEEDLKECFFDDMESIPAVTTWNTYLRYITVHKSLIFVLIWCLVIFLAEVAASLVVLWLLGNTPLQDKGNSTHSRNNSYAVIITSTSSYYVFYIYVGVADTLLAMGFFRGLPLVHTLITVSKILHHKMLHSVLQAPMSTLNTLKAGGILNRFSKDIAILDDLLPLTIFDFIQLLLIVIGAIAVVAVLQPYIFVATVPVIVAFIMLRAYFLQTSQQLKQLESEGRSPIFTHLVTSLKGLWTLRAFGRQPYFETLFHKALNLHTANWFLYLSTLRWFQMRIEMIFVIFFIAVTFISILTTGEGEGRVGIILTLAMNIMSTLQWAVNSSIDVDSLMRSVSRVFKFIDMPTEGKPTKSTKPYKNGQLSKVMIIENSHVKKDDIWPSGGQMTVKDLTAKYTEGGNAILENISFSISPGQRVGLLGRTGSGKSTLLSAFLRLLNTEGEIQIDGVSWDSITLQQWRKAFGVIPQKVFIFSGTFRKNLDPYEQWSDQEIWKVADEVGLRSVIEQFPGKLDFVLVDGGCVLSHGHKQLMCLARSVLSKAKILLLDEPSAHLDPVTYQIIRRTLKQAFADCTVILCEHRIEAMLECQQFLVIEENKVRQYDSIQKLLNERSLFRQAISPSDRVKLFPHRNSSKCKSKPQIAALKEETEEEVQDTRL

With `O=C(O)c1ccc(/C=C2\SC(=S)N(c3cccc(C(F)(F)F)c3)C2=O)cc1` [172 inhibitor] the “MQAE fluorescence (Cl- channel activity)” value (CFTR; IB3-1 cells) was “block the cAMP mediated cystic fibrosis transmembrane receptor (CFTR) activity”.
For `CCCC[C@@H](C=O)NC(=O)[C@H](CC(C)C)NC(=O)[C@H](CC(C)C)NC(C)=O` [ALLN, N-acetyl-leucylleucyl-Norleucinal] (Ac-Leu-Leu-[Nle]-aldehyde), the ΔF508-CFTR degradation (ΔF508-CFTR [1]) is listed as “blocks ΔF508-CFTR it degradation”.
For `CC(C)C[C@H](NC(=O)[C@H](Cc1cccc2ccccc12)NC(=O)N1CCOCC1)B(O)O` [MLN273], the IL8 cytokine levels (IL8; [6]) was “significantly inhibited” and the “NFκB binding (absorbance at 450 nm)” value (NFκB) was “significantly inhibited”.
For `CC(C)C[C@H](NC(=O)[C@H](Cc1ccccc1)NC(=O)c1cnccn1)B(O)O` [bortezomib, pyrazylcarbonyl-Phe-Leu-boronate], the protease activity (proteasome) was “partial inhibition”, the “level of immature B form of ΔF508-CFTR” value (ΔF508-CFTR [2]) was “partially rescues” and the “rescue of ΔF508-CFTR from ERAD” value (ΔF508-CFTR [2]) was “partially rescued ΔF508-CFTR”. For the same molecule, the VCP protein level (VCP) was “inhibition”, the VCP protein level (VCP; listed as Bortezomib) was “inhibited” and the “wt-CFTR maturation and stability, band B to band C” value (wt-CFTR) was “substantial amounts of mature band C; also recorded: stabilizes the wild type-CFTR mature (C-form)”. For the same molecule, the “TNF-α-induced gene expression of cell-surface adhesion molecules” value [3] was “inhibits”, the “morphology of treated vs untreated monolayers” value (IB3-1 cells) was “no difference in morphology” and the Hsp70 protein level (Hsp70) was “Induction”. For the same molecule, the Hsp70 protein level (Hsp70; listed as Bortezomib) was “induced”, the “T cell-dependent chronic phase of the inflammatory response” value [4] was “markedly inhibited” and the “neutrophil-predominant acute phase of the inflammatory response” value [4] was “attenuated”. For the same molecule, the IL8 cytokine levels (IL8; [6]) was “significantly inhibited”, the IL8 cytokine levels (IL8; transfection 48 hrs or 5 μM bortezomib 6 hrs (FIG. 6A)) was “significantly downregulated; also recorded: significantly inhibited” and the “combined effect of ΔCHOP and bortezomib on IL8 down regulation” value (IL8; ΔCHOP 24 hrs plus 5 μM bortezomib 6 hrs, IL1-β 1 ng/ml (FIG. 6B)) was “synergistic effect”. The gp78 protein level (gp78) was “no change”, the “ΔF508-CFTR accumulation and rescue” value (ΔF508-CFTR [5]) was “significant increase in the accumulation and stabilization of the B form; also recorded: rescues the ΔF508-CFTR mature (C-form) by 2 hrs” and the Hsp40 protein level (Hsp40) was “no change”. The “NF-κB activation and NF-κB-dependent gene expression” value (NF-κB) was “inhibit NF-κB activation and NF-κB-dependent gene expression”, the “NFκB binding (absorbance at 450 nm)” value (NFκB) was “significantly inhibited” and the “combined effect of ΔCHOP and bortezomib on NFκB binding” value (NFκB; ΔCHOP 24 hrs plus 5 μM bortezomib 6 hrs, IL1-β 1 ng/ml (FIG. 6C)) was “synergistic effect”. For the same molecule, the “genistein mediated chloride efflux” value (CFTR; IB3-1 cells transfected with ΔF508-CFTR, bortezomib 5 or 10 μM for 6 hrs, bars in mM/s (FIG. 5C)) was “augmented chloride efflux; also recorded: significantly induced” and the “combined effect with genistein on rescue of functional ΔF508-CFTR” value (CFTR; IB3-1 cells, with genistein (FIG. 5C)) was “synergistic effect”.
For `O=c1c(-c2ccc(O)cc2)coc2cc(O)cc(O)c12` [genistein], the “MQAE fluorescence (Cl- channel activity)” value (CFTR; IB3-1 cells) was “significant change” and the “MQAE fluorescence (Cl- channel activity)” value (CFTR; IB3-1 cells, listed as Genistein) was “significant increase”.
